PubChem BioAssay AID2060486 (Molecular Pharmacology Branch, DTP, NCI, 2025)

Tested on: IGROV1 complex spheroids (HUVEC, MSC), viability % test/control
Assay: Anticancer human tumor IGROV1 cell line growth inhibition [GQUAD];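 further: spheroids exposed to compounds for 7 days before readout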;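 on viability, T/C: 100% = DMSO vehicle control viability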
Settings: for IC50: curve of first compound; for viability, T/C: stronger effect = lower value
How it was run: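 Multi-cell-type spheroids of tumor cells with HUVEC and mesenchymal stem cells, treated with drug combinations. Concentrations descend in half-log steps from near clinical Cmax, or from 10 microM where Cmax is unknown; viability read-out.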

[1] = second compound 0.0316 µM, first compound 0.0316 µM
[2] = second compound 0.0316 µM, first compound 0.316 µM
[3] = second compound 0.1 µM, first compound 0.0316 µM
[4] = second compound 0.1 µM, first compound 0.316 µM
[5] = second compound 0.316 µM, first compound 0.0316 µM
[6] = second compound 0.316 µM, first compound 0.316 µM
[7] = second compound 1 µM, first compound 0.0316 µM
[8] = second compound 1 µM, first compound 0.316 µM
[9] = second compound 3.16 µM, first compound 0.0316 µM
[10] = second compound 3.16 µM, first compound 0.316 µM
[11] = second compound 10 µM, first compound 0.0316 µM
[12] = second compound 10 µM, first compound 0.316 µM

Compound: Cc1[nH]c2ccccc2c1CCNCc1ccc(/C=C/C(=O)NO)cc1 + Cc1cnc(CNC(=O)c2c(=O)c3ccc(N4CCCN(C)CC4)nc3n3c2sc2ccccc23)cn1
- IC50 (second compound 0.0316 µM): 6.26 nM
- IC50 (second compound 0.1 µM): < 0.999 nM
- IC50 (second compound 0.316 µM): < 0.999 nM
- IC50 (second compound 1 µM): < 0.999 nM
- IC50 (second compound 3.16 µM): < 0.999 nM
- IC50 (second compound 10 µM): < 0.999 nM
- viability, T/C (second compound 0.0316 µM, first compound 0.000999 µM): 65.9%
- viability, T/C (second compound 0.0316 µM, first compound 0.00316 µM): 65.3%
- viability, T/C (second compound 0.0316 µM, first compound 0.00999 µM): 38.7%
- viability, T/C [1]: 21.5%
- viability, T/C (second compound 0.0316 µM, first compound 0.0999 µM): 2.35%
- viability, T/C [2]: 0.32%
- viability, T/C (second compound 0.1 µM, first compound 0.000999 µM): 41.6%
- viability, T/C (second compound 0.1 µM, first compound 0.00316 µM): 36.1%
- viability, T/C (second compound 0.1 µM, first compound 0.00999 µM): 23.9%
- viability, T/C [3]: 19.6%
- viability, T/C (second compound 0.1 µM, first compound 0.0999 µM): 2.91%
- viability, T/C [4]: 0.3%
- viability, T/C (second compound 0.316 µM, first compound 0.000999 µM): 22.5%
- viability, T/C (second compound 0.316 µM, first compound 0.00316 µM): 25.8%
- viability, T/C (second compound 0.316 µM, first compound 0.00999 µM): 15.5%
- viability, T/C [5]: 15%
- viability, T/C (second compound 0.316 µM, first compound 0.0999 µM): 3.3%
- viability, T/C [6]: 0.05%
- viability, T/C (second compound 1 µM, first compound 0.000999 µM): 15.4%
- viability, T/C (second compound 1 µM, first compound 0.00316 µM): 16.3%
- viability, T/C (second compound 1 µM, first compound 0.00999 µM): 9.69%
- viability, T/C [7]: 6.52%
- viability, T/C (second compound 1 µM, first compound 0.0999 µM): 1.86%
- viability, T/C [8]: 0.04%
- viability, T/C (second compound 3.16 µM, first compound 0.000999 µM): 8.66%
- viability, T/C (second compound 3.16 µM, first compound 0.00316 µM): 10.2%
- viability, T/C (second compound 3.16 µM, first compound 0.00999 µM): 9.38%
- viability, T/C [9]: 6%
- viability, T/C (second compound 3.16 µM, first compound 0.0999 µM): 0.07%
- viability, T/C [10]: 0.07%
- viability, T/C (second compound 10 µM, first compound 0.000999 µM): 6.85%
- viability, T/C (second compound 10 µM, first compound 0.00316 µM): 7.04%
- viability, T/C (second compound 10 µM, first compound 0.00999 µM): 5.72%
- viability, T/C [11]: 4.82%
- viability, T/C (second compound 10 µM, first compound 0.0999 µM): 0.14%
- viability, T/C [12]: 0.13%

Compound: Nc1ccn(C2OC(CO)C(O)C2(F)F)c(=O)n1 (centres undefined) + Cc1cnc(CNC(=O)c2c(=O)c3ccc(N4CCCN(C)CC4)nc3n3c2sc2ccccc23)cn1
- IC50 (second compound 0.0316 µM): < 31.6 nM
- IC50 (second compound 0.1 µM): < 31.6 nM
- IC50 (second compound 0.316 µM): < 31.6 nM
- IC50 (second compound 1 µM): < 31.6 nM
- IC50 (second compound 3.16 µM): < 31.6 nM
- IC50 (second compound 10 µM): < 31.6 nM
- viability, T/C [1]: 10.5%
- viability, T/C (second compound 0.0316 µM, first compound 0.1 µM): 5.6%
- viability, T/C [2]: 5.15%
- viability, T/C (second compound 0.0316 µM, first compound 1 µM): 4.7%
- viability, T/C (second compound 0.0316 µM, first compound 3.16 µM): 4.99%
- viability, T/C (second compound 0.0316 µM, first compound 10 µM): 4.44%
- viability, T/C [3]: 12.7%
- viability, T/C (second compound 0.1 µM, first compound 0.1 µM): 4.99%
- viability, T/C [4]: 8.19%
- viability, T/C (second compound 0.1 µM, first compound 1 µM): 6.35%
- viability, T/C (second compound 0.1 µM, first compound 3.16 µM): 5.18%
- viability, T/C (second compound 0.1 µM, first compound 10 µM): 3.96%
- viability, T/C [5]: 11.5%
- viability, T/C (second compound 0.316 µM, first compound 0.1 µM): 5.16%
- viability, T/C [6]: 5.92%
- viability, T/C (second compound 0.316 µM, first compound 1 µM): 5.56%
- viability, T/C (second compound 0.316 µM, first compound 3.16 µM): 4.85%
- viability, T/C (second compound 0.316 µM, first compound 10 µM): 4.62%
- viability, T/C [7]: 11.1%
- viability, T/C (second compound 1 µM, first compound 0.1 µM): 7%
- viability, T/C [8]: 6.75%
- viability, T/C (second compound 1 µM, first compound 1 µM): 6.61%
- viability, T/C (second compound 1 µM, first compound 3.16 µM): 4.42%
- viability, T/C (second compound 1 µM, first compound 10 µM): 4.28%
- viability, T/C [9]: 6.61%
- viability, T/C (second compound 3.16 µM, first compound 0.1 µM): 7.28%
- viability, T/C [10]: 6.54%
- viability, T/C (second compound 3.16 µM, first compound 1 µM): 5.77%
- viability, T/C (second compound 3.16 µM, first compound 3.16 µM): 5.25%
- viability, T/C (second compound 3.16 µM, first compound 10 µM): 3.96%
- viability, T/C [11]: 9.97%
- viability, T/C (second compound 10 µM, first compound 0.1 µM): 6.38%
- viability, T/C [12]: 5.25%
- viability, T/C (second compound 10 µM, first compound 1 µM): 7.22%
- viability, T/C (second compound 10 µM, first compound 3.16 µM): 5.43%
- viability, T/C (second compound 10 µM, first compound 10 µM): 3.66%
